Assay results as given in patent US20160339022A1, “TREATMENT OF NEUROBLASTOMA WITH HISTONE DEACETYLASE INHIBITORS” (Acetylon Pharmaceuticals Inc., priority 2015, published 2016).

How the values were obtained:
HDAC2 = HDAC2 (Homo sapiens, UniProt Q92769); experiment: HDAC2 activity in live cells; type: cell-based; details: FIG. 1C
neuroblastoma cells [1] = experiment: Histone acetylation in neuroblastoma cells by western blot; type: cell-based; details: western blot at 24 hours
SK-N-BE(2) cells [2] = experiment: Cell viability (Promega CellTiter Glo assay); type: cell-based
Description: (§1) Cells were cultured for 48 hours at the indicated concentration of drug, and then cell viability was measured by Promega CellTiter Glo assay and caspase activity was measured by Promega Caspase3/7 Glo assay. […] Anti-tumor activity is evident at 3 μM of treatment.

SK-N-BE(2) cells [3] = experiment: Caspase activity (Promega Caspase3/7 Glo assay); type: cell-based
Description: as §1

neuroblastoma cells [4] = experiment: Neuroblastoma proliferation, manual cell counts over 7 days; type: cell-based; details: 1 μM and 3 μM, counted at days 3, 5 and 7
Description: Cells were cultured over a 7 day period and manually counted at days 3, 5, and 7.

p21 = experiment: Expression of cell cycle regulator p21; type: cell-based; details: single agent, FIG. 6A
NF-M = NF-M staining by fluorescent microscopy; type: cell-based; details: 7 days on glass slides
Description: Cells were cultured for 7 days with the indicated treatments on glass slides. Cells were fixed and stained with antibodies for NF-M and nucleus. Images were captured on a fluorescent microscope.

neuroblastoma cells [5] = experiment: Long term growth assay (15, 20, 25 days, Crystal Violet); type: cell-based
Description: Cells were cultured for 15, 20 or 25 days with the indicated treatments. Cells were imaged on an inverted microscope at days 15 and 20. On day 25, the cells were stained with Crystal Violet dye and imaged by cell phone camera Importantly, the combination of ATRA and Compound B suppressed the growth of ATRA-resistant colonies.
Cells were cultured for 15, 20 or 25 days with the indicated treatments. Cells were imaged on an inverted microscope at days 15 and 20. On day 25, the cells were stained with Crystal Violet dye and imaged.
Cells were cultured for 15, 20 or 25 days with the indicated treatments. Cells were imaged on an inverted microscope at days 15 and 20. On day 25, the cells were stained with Crystal Violet dye and imaged. It was observed that the combination activity is mediated by HDAC1/2i.
Neuroblastoma cells were treated with Compound B or the HDAC3-selective inhibitor Compound C in a long term growth assay.

[6] = tested on: retinoic acid receptor (RAR); experiment: Retinoic acid receptor ChIP-seq; type: cell-based; details: 3 μM Compound B, 48 hours
Text: Retinoic acid receptor active binding sites defined in any individual treatment group by ChIP-seq at 48 hrs after treatment were stacked (y-axis) and aligned to the center of the binding peak (x-axis) (FIG. 13). […] Many of the genes found near region 1 binding sites are involved in regulation of retinoid signaling and are transcription factors that drive differentiation (Table 10).
Regions 1-7 of FIG. 13 are defined relative to DMSO: 1, [Combo] Increased; 2, [ATRA] Increased; 3, [ATRA] [Combo] Increased; 4, [Combo] [ATRA] [Compound B] Increased; 5, [Combo] [ATRA] Decreased; 6, [Compound B] Decreased; and 7, [Compound B] [Combo] [ATRA] Decreased.
Neuroblastoma cell line SK-N-BE(2) cells were treated with 3 μM Compound B, 1 μM ATRA, or a combination of both at 37° C. over 48 hours and compared to the solvent (DMSO) control. Antibodies to pan-retinoic acid receptor were used to pull down DNA associated with the receptor binding and sequenced. Lists of binding regions were mapped to the chromosome and “associated” with a given gene if the binding region was located within 10,000 bp up- or down-stream of the gene in question. Binding regions were represented as a heatmap where the sites were stacked on the y-axis across treatments, the “0” mark on the x-axis is the center of the binding peak and the intensity of signal indicated by color. The bracketed regions are areas of statistical significance relative to the DMSO control as indicated on the plot.
Table 12 lists the genes returned when the following conditions are met: 1) combo peak height >4 fold relative to the DMSO control group, and 2) combo expression >4 fold relative to the DMSO control group.

Wnt signaling pathway = experiment: Levels of Wnt-related signaling molecules; type: cell-based; details: SK-N-BE2 cells; 3 days in culture
Description: The levels of Wnt-related signaling molecules were assessed following treatment (SK-N-BE2 cells; 3 days in culture) with DMSO (control), Compound B alone, ATRA alone, and Compound B in combination with ATRA. b-catenin, the key signaling molecule in the Wnt pathway, is decreased by the Compound B and ATRA combination. Activated p-LRP is decreased after Compound B single agent treatment. Disheveled (Dvl) 2 & 3 is reduced by Compound B and ATRA combination treatment. Naked2 is increased by Compound B as a single agent and in combination with ATRA. Axin1 is decreased by Compound B as a single agent and in combination with ATRA.

AKT and c-RAF = experiment: Levels of AKT and c-RAF; type: cell-based; details: SK-N-BE2 cells; 3 days in culture
Description: The levels of AKT and c-RAF were assessed following treatment (SK-N-BE2 cells; 3 days in culture) with DMSO (control), Compound B alone, ATRA alone, and Compound B in combination with ATRA. Activated AKT is increased by ATRA and reduced in the combination setting with Compound B. Compound B as a single agent, and in combination with ATRA, decreases cRAF phosphorylation at residue Ser259.

neuroblastoma cells [7] = details: MTS assay, FIGS. 27 and 28
Description: Viable cells were measured in an MTS assay and the combination index (CI) was calculated using the Chou-Talaay method.

[8] = SK-N-BE(2) cells, 1 μM ATRA or combination, fold relative to the DMSO control group

HDAC2, sequence (Q92769 whole entry): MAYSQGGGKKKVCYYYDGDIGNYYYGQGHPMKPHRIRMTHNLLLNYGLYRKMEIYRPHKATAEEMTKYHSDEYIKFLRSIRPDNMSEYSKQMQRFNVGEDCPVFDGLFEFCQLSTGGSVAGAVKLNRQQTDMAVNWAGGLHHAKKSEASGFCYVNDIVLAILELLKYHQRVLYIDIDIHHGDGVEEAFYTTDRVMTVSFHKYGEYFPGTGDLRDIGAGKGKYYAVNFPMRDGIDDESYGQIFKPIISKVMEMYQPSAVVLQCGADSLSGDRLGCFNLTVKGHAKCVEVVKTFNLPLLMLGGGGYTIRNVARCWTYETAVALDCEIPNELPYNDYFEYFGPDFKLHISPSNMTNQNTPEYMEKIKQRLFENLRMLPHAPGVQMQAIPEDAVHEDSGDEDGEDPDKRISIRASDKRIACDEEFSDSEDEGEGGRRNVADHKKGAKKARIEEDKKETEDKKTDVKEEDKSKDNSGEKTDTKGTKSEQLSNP

Nc1ccc(-c2cccs2)cc1NC(=O)c1ccc2c(c1)cc(C1CC1)n2CCN1CCOCC1 [Compound B, N-(2-amino-5-(thiophen-2-yl)phenyl)-2-cyclopropyl-1-(2-morpholinoethyl)-1H-indole-5-carboxamide]
potency of inhibition of HDAC2 activity in live cells (HDAC2): 500 to 3000 nM
histone acetylation (neuroblastoma cells [1]): induces histone acetylation
cell death (SK-N-BE(2) cells [2]; 1 μM, 48 hours): Minimal
anti-tumor activity (SK-N-BE(2) cells [2]; 3 μM, 48 hours): evident
concentrations causing tumor cell death (SK-N-BE(2) cells [2]; FIG. 2A): ≥ 2 µM
caspase 3/7 induction (SK-N-BE(2) cells [3]; 1 μM, 48 hours): Minimal
concentrations at which Caspase 3/7 activity is increased (SK-N-BE(2) cells [3]; FIG. 2B, independent of ATRA): ≥ 2 µM
proliferation, single agent (neuroblastoma cells [4]): can suppress proliferation similar to ATRA
expression of master cell cycle regulator p21 (p21): increased expression
NF-M staining (NF-M): general increase in NF-M staining
neuroblastoma cell growth in long term growth assay (neuroblastoma cells [5]; 1 μM of exposure, single agent, FIG. 11): reduced neuroblastoma cell growth
growth of ATRA-resistant colonies (neuroblastoma cells [5]; combination with ATRA, 15-25 days): strongly suppressed
RAR Binding (Peak Height), ACSL3 [6, 8]: 2.00
RAR Binding (Peak Height), ATP7A [6, 8]: 2.20
RAR Binding (Peak Height), CDKN1A [6, 8]: 0.50
RAR Binding (Peak Height), CRABP2 [6, 8]: 0.69
RAR Binding (Peak Height), CTSH [6, 8]: 0.83
RAR Binding (Peak Height), CYP26A1 [6, 8]: 2.33
RAR Binding (Peak Height), CYP26B1 [6, 8]: 1.50
RAR Binding (Peak Height), DHRS3 [6, 8]: 1.00
RAR Binding (Peak Height), DUSP6 [6, 8]: 3.00
RAR Binding (Peak Height), ETS1 [6, 8]: 3.35
RAR Binding (Peak Height), HSPA5 [6, 8]: 2.00
RAR Binding (Peak Height), IER3 [6, 8]: 2.67
RAR Binding (Peak Height), NFKBIZ [6, 8]: 3.33
RAR Binding (Peak Height), PCDH18 [6, 8]: 4.00
RAR Binding (Peak Height), PTGER2 [6, 8]: 0.75
RAR Binding (Peak Height), RARB [6, 8]: 1.10
RAR Binding (Peak Height), RET [6, 8]: 1.71
RAR binding to chromatin ([6]; SK-N-BE(2), 1 μM ATRA, vs DMSO): can reduce RAR binding
Axin1 level (Wnt signaling pathway): decreased
Naked2 level (Wnt signaling pathway): increased
activated p-LRP level (Wnt signaling pathway): decreased
cRAF phosphorylation at residue Ser259 (AKT and c-RAF): decreases
cytotoxic effect on neuroblastoma cells as a single agent (neuroblastoma cells [7]): has a cytotoxic effect
